According to article PMC10692721, “Drug discovery for heart failure targeting myosin-binding protein C” (The Journal of Biological Chemistry, 2023):
Structures can show the parent of a compound that is named as a salt.

What was measured:
[1] = tested on: FMAL-actin/TMR-cC0-C2 interaction; assay: FLT-FRET concentration-response assay, FMAL-actin plus TMR-cC0-C2; assay type: binding, human; conditions: for specificity of FLT-FRET effect for unphosphorylated over phosphorylated cC0-C2: effect on cC0-C2 compared to phosphorylated cC0-C2 (Tables 1 and 2); for effect on FLT-FRET / binding between FMAL-actin and TMR-cC0-C2 (in words): unphosphorylated cC0-C2; for fold effect on increased FRET (or binding) (Table 2): comparison not given
Procedure: (§1) Compounds identified as initial hits were further examined to determine the concentration–response curves for seven conditions ([1]): FMAL-actin alone identified actin-binding compounds that alter the FLT of FMAL-actin ([2]).
(§2) Fluorescence lifetime (FLT) measurements were acquired using a high-throughput FLT plate reader (Fluorescence Innovations, Inc) ([14], [27]), provided by Photonic Pharma LLC. […] The observed waveforms were analyzed as described previously ([15], [28]).
(§3) The primary hits were dissolved in DMSO to make a 10 mM stock solution, which was serially diluted in 96-well mother plates. Hits were screened at eight concentrations (0.5–100 μM). […] Compounds (1 μl) were transferred from the mother plates into 384-well plates using a Mosquito HV liquid handler (TTP Labtech Ltd, Hertfordshire, UK). The same procedure of dispensing as for the pilot screening was applied in the concentration-response assays. Concentration dependence of the FLT-FRET (E/EDMSO) or FLT-TMR (Δτ) change data was fit to a Hill equation only under certain conditions to help guide the eye (Fig. 4).

TMR-cC0-C2 = assay: Selleck library HTS, 532 nm excitation (FLT of TMR-cC0-C2 in presence of FMAL-actin); assay type: binding, human; conditions: for 532-nm Δτ, Repeat 1 / 532-nm Δτ, Repeat 2: initial screen, 30 μM compound; for 532-nm z-score (based on avg Δτ): robust z-score, hit threshold ±4, 30 μM compound
Procedure: as §2
(§4) In total, 50 nl of each solution was dispensed in DMSO using an automated Echo 550 acoustic liquid dispenser (Labcyte). Compounds were formatted into the assay plates, at a final concentration of 30 μM, with the first two and second to last columns loaded with DMSO only (compound-free controls). In the final column, 30 μM of suramin was loaded as a positive control (tool compound). These assay plates were then heat-sealed using a PlateLoc Thermal Microplate Sealer (Agilent Technologies) and stored at −20 °C. Before screening, compound plates were equilibrated to room temperature (∼25 °C). […] Plates were incubated at room temperature for 60 min before recording the data with the fluorescence lifetime plate reader.
Hits that exceeded the z-score hit criteria in the donor-only screen were excluded from consideration. To remove compounds with confounding fluorescence properties, a similarity index (SI, specifically the cosine distance, Equation 5) was computed using data from the SUPR instrument by comparing a region (500–540 nm) of the donor-only spectrum (I^(a)) for each well to that of the plate-wide average DMSO spectrum (I^(b)) in the same wavelength band ([29]). Compounds that exceeded an SI robust z-score of 4 were deemed likely fluorescent compounds and removed from consideration.(5) SI=1−∑Ii(a).Ii(b)/∑Ii(a).Ii(a)∑Ii(b).Ii(b)

[2] = tested on: FMAL-actin plus TMR-cC0-C2; assay: Selleck library HTS, 473 nm excitation (FLT of FMAL-actin with TMR-cC0-C2, FLT-FRET); assay type: binding, human; conditions: for 473-nm Δτ, Repeat 1 / 473-nm Δτ, Repeat 2: initial screen, 30 μM compound; for 473-nm z-score (based on avg Δτ): robust z-score, hit threshold ±4, 30 μM compound
Procedure: as §2, §4
After fitting the waveforms with a single exponential decay to quantify donor FLT, the change in FLT (Δτ) was computed by performing a moving median subtraction in the order the plate was scanned with a window size of half a plate row […]. The reasons for this are twofold. Firstly, plate gradients are often observed due to the heating of the digitizer during acquisition.
To account for the necessity to correct for plate gradients in the computation of E, the median τDMSO prior to the application of the moving median correction was added to each well’s Δτ value to recover a rescaled value of τ.

[3] = tested on: FMAL-actin/TMR-fC1-C2 interaction; assay: FLT-FRET concentration-response assay, FMAL-actin plus TMR-fC1-C2; assay type: binding
Procedure: as §1, §2, §3

[4] = tested on: TMR-fC1-C2 (C1-C2 of fast skeletal MyBP-C); assay: FLT-TMR concentration-response assay, fC1-C2; assay type: binding
Procedure: as §1, §2, §3

[5] = tested on: TMR-cC0-C2 (C0-C2 fragment of human cMyBP-C); assay: FLT-TMR concentration-response assay (FLT of TMR on cC0-C2, no actin); assay type: binding
Procedure: as §1, §2, §3

[6] = tested on: PKA-phosphorylated TMR-cC0-C2 (cC0-C2#P); assay: FLT-TMR concentration-response assay, PKA-phosphorylated cC0-C2; assay type: binding, human
Procedure: as §1, §2, §3

[7] = concentration-response, no actin
[8] = listed as Erlotinib HCl (OSI-744)

Row | fold effect on increased FRET (or binding) (Table 2) [1] | Molecule | specificity of FLT-FRET effect for unphosphorylated over phosphorylated cC0-C2 [1] | 532-nm Δτ, Repeat 1 (TMR-cC0-C2) [ns] | 532-nm Δτ, Repeat 2 (TMR-cC0-C2) [ns] | 532-nm z-score (based on avg Δτ) (TMR-cC0-C2) | 473-nm Δτ, Repeat 1 [2] [ns] | 473-nm Δτ, Repeat 2 [2] [ns] | 473-nm z-score (based on avg Δτ) [2] | cC0-C2/fC1-C2 (ratio of FLT changes) ([4]; 60 μM compound) | fC1-C2 FLT change (% change from DMSO, FLT of TMR-MyBP-C) ([4]; 60 μM compound) [%] | cC0-C2/cC0-C2#P (ratio of FLT changes) ([5]; 60 μM compound) | cC0-C2 FLT change (% change from DMSO, FLT of TMR-MyBP-C) ([5]; 60 μM compound) [%] | cC0-C2#P FLT change (% change from DMSO, FLT of TMR-MyBP-C) ([6]; 60 μM compound) [%] | further results
1 | fivefold or greater | C[C@@H]1O[C@@H](O[C@H]2[C@H](O[C@H]3CC[C@@]4(C)[C@@H](CC[C@]5(C)[C@@H]4CC=C4[C@@H]6CC(C)(C)CC[C@]6(C(=O)O)CC[C@]45C)[C@]3(C)CO)OC[C@H](O)[C@@H]2O)[C@H](O)[C@H](O)[C@H]1O [α-Hederin] | 13–54 fold | 0.105 | 0.175 | 8.58 | -0.087 | -0.051 | -3.83 | 1.0 | 6.7 | 0.9 | 6.7 | 7.1 | –
2 | fivefold or greater | Verteporfin | – | 0.065 | 0.075 | 4.32 | 0.093 | 0.064 | 4.41 | – | – | – | – | – | specificity of FLT-FRET effect for cC0-C2 over fC1-C2 ([1]; effect on cC0-C2 compared to fC1-C2 (Tables 1 and 2)): 22.4 fold; cC0-C2/fC1-C2 (ratio of FLT changes) ([4]; 10 μM compound (∗)): 2.2; fC1-C2 FLT change (% change from DMSO, FLT of TMR-MyBP-C) ([4]; 10 μM compound (∗)): 2.5%; cC0-C2/cC0-C2#P (ratio of FLT changes) ([5]; 10 μM compound (∗)): 0.8; cC0-C2 FLT change (% change from DMSO, FLT of TMR-MyBP-C) ([5]; 10 μM compound (∗)): 5.5%; cC0-C2#P FLT change (% change from DMSO, FLT of TMR-MyBP-C) ([6]; 10 μM compound (∗)): 6.8%

The remaining lines, values behind:

Row | Molecule | fold effect on increased FRET (or binding) (Table 2) [1] | specificity of FLT-FRET effect for unphosphorylated over phosphorylated cC0-C2 [1] | 532-nm Δτ, Repeat 1 (TMR-cC0-C2) [ns] | 532-nm Δτ, Repeat 2 (TMR-cC0-C2) [ns] | 532-nm z-score (based on avg Δτ) (TMR-cC0-C2) | 473-nm Δτ, Repeat 1 [2] [ns] | 473-nm Δτ, Repeat 2 [2] [ns] | 473-nm z-score (based on avg Δτ) [2] | cC0-C2/fC1-C2 (ratio of FLT changes) ([4]; 60 μM compound) | fC1-C2 FLT change (% change from DMSO, FLT of TMR-MyBP-C) ([4]; 60 μM compound) [%] | cC0-C2/cC0-C2#P (ratio of FLT changes) ([5]; 60 μM compound) | cC0-C2 FLT change (% change from DMSO, FLT of TMR-MyBP-C) ([5]; 60 μM compound) [%] | cC0-C2#P FLT change (% change from DMSO, FLT of TMR-MyBP-C) ([6]; 60 μM compound) [%] | further results
3 | CCCCC(=O)N(Cc1ccc(-c2ccccc2-c2nnn[nH]2)cc1)[C@H](C(=O)O)C(C)C [Valsartan] | – | stronger reduction of FRET with non-phosphorylated than phosphorylated | 0.000 | 0.013 | 0.44 | 0.149 | 0.058 | 5.83 | – | – | – | – | – | effect on FLT-FRET / binding between FMAL-actin and TMR-cC0-C2 (in words) [1]: decreased; effect on FLT-FRET / binding between FMAL-actin and TMR-fC1-C2 (in words) [3]: decreased
4 | Sacubitril/valsartan [Sacubitril/valsartan (LCZ696)] | – | stronger reduction of FRET with non-phosphorylated than phosphorylated | -0.025 | 0.012 | -0.37 | 0.140 | 0.095 | 6.60 | – | – | – | – | – | effect on FLT-FRET / binding between FMAL-actin and TMR-cC0-C2 (in words) [1]: decreased; effect on FLT of TMR-fC1-C2 (in words) [4, 7]: do not affect; effect on FLT of TMR-cC0-C2 (in words) [5, 7]: do not affect; effect on FLT-FRET / binding between FMAL-actin and TMR-fC1-C2 (in words) [3]: decreased
5 | CC1(C)CC[C@]2(C(=O)O)CC[C@]3(C)C(=CC[C@@H]4[C@@]5(C)CC[C@H](O)[C@@](C)(CO)[C@@H]5CC[C@]43C)[C@@H]2C1 [Hederagenin] | – | – | -0.038 | -0.038 | -2.29 | 0.083 | 0.060 | 4.06 | 1.1 | 2.3 | 0.7 | 2.5 | 3.6 | –
6 | Cc1cn(-c2cc(NC(=O)c3ccc(C)c(Nc4nccc(-c5cccnc5)n4)c3)cc(C(F)(F)F)c2)cn1.Cl [Nilotinib hydrochloride] | – | – | 0.121 | 0.105 | 6.94 | -0.063 | -0.031 | -2.59 | 0.6 | 15.6 | 0.7 | 10.1 | 14.1 | –
7 | C[C@H]1O[C@@H](O[C@H]2CC[C@@]3(C)[C@@H](CC[C@]4(C)[C@@H]3C=C[C@]35OC[C@@]6(CCC(C)(C)C[C@H]63)[C@H](O)C[C@]54C)[C@]2(C)CO)[C@H](O)[C@@H](O[C@@H]2O[C@H](CO)[C@@H](O)[C@H](O)[C@H]2O)[C@H]1O [Saikosaponin D] | fivefold or greater | 13–54 fold | 0.065 | 0.086 | 4.65 | -0.122 | -0.094 | -5.99 | 1.3 | 4.2 | 0.9 | 5.4 | 6.3 | –
8 | C#Cc1cccc(Nc2ncnc3cc(OCCOC)c(OCCOC)cc23)c1 [Erlotinib HCl] | – | – | – | – | – | – | – | – | 1.1 | 11.1 | 0.8 | 11.8 | 13.9 | 532-nm Δτ, Repeat 1 (TMR-cC0-C2; [8]): 0.138 ns; 532-nm Δτ, Repeat 2 (TMR-cC0-C2; [8]): 0.020 ns; 532-nm z-score (based on avg Δτ) (TMR-cC0-C2; [8]): 4.88; 473-nm Δτ, Repeat 1 [2, 8]: -0.040 ns; 473-nm Δτ, Repeat 2 [2, 8]: -0.010 ns; 473-nm z-score (based on avg Δτ) [2, 8]: -1.36
